Measurements: PubChem BioAssay (NCI)
“And” between values parts separate entries of the source, which are not always exact repeats. Equal values may be shown once.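 Grown in 96-well plates, cells were treated for 48 hours with each compound at five concentrations. Insufficient inhibition: endpoint recorded as highest concentration tested. The concentration for 50% growth inhibition is given as GI50. Definition used: TGI = concentration required for complete inhibition of growth.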

How the values were obtained:
Experiment in all cases: inhibition of tumour cell growth, NCI panel, 48 h
PC-3 prostate = test system: PC-3 prostate
SNB-75 CNS = test system: SNB-75 CNS
SK-MEL-2 melanoma = test system: SK-MEL-2 melanoma
LOX IMVI melanoma = test system: LOX IMVI melanoma
MALME-3M melanoma = test system: MALME-3M melanoma
SF-295 CNS = test system: SF-295 CNS
RXF 393 renal = test system: RXF 393 renal
HCT-15 colon = test system: HCT-15 colon
OVCAR-3 ovarian = test system: OVCAR-3 ovarian
COLO 205 colon = test system: COLO 205 colon

Compound: O=C1C=C(Nc2ccccc2)c2ncccc2C1=O
- GI50 (PC-3 prostate): 439 nM
- TGI (PC-3 prostate): 2290 nM
- GI50 (SNB-75 CNS): 1580 nM
- TGI (SNB-75 CNS): 2940 nM
- GI50 (SK-MEL-2 melanoma): 1910 nM
- TGI (SK-MEL-2 melanoma): 3670 nM
- GI50 (LOX IMVI melanoma): 208 nM
- TGI (LOX IMVI melanoma): 514 nM
- GI50 (MALME-3M melanoma): 1060 nM
- TGI (MALME-3M melanoma): 2370 nM
- GI50 (SF-295 CNS): 1310 nM
- TGI (SF-295 CNS): 2600 nM
- GI50 (RXF 393 renal): 1400 nM
- TGI (RXF 393 renal): 2720 nM
- GI50 (HCT-15 colon): 321 nM
- TGI (HCT-15 colon): 1280 nM
- GI50 (OVCAR-3 ovarian): 280 nM
- TGI (OVCAR-3 ovarian): 825 nM
- GI50 (COLO 205 colon): 1950 nM
- TGI (COLO 205 colon): 3920 nM

Compound: Nc1ccccc1NC(=O)c1ccc(CSc2nc(N3CCOCC3)c3cccn3n2)cc1
- GI50 (PC-3 prostate): 752 nM
- TGI (PC-3 prostate): 41400 nM
- GI50 (SNB-75 CNS): 320 nM
- TGI (SNB-75 CNS): 15600 nM
- GI50 (SK-MEL-2 melanoma): 314 nM
- TGI (SK-MEL-2 melanoma): 1880 nM
- GI50 (LOX IMVI melanoma): 490 nM
- TGI (LOX IMVI melanoma): 3220 nM
- GI50 (MALME-3M melanoma): 834 nM
- TGI (MALME-3M melanoma): > 100000 nM
- GI50 (SF-295 CNS): 1600 nM
- TGI (SF-295 CNS): 17200 nM
- GI50 (RXF 393 renal): 464 nM
- TGI (RXF 393 renal): 2510 nM
- GI50 (HCT-15 colon): 588 nM
- TGI (HCT-15 colon): > 100000 nM
- GI50 (OVCAR-3 ovarian): 1050 nM
- TGI (OVCAR-3 ovarian): 6730 nM
- GI50 (COLO 205 colon): 1070 nM
- TGI (COLO 205 colon): 2960 nM

Compound: COc1ccc(-c2cc(-c3ccc(Nc4nc(Nc5ccc(Cl)cc5)nc(Nc5ccc(Cl)cc5)n4)cc3)no2)cc1
- GI50 (PC-3 prostate): 3650 nM
- TGI (PC-3 prostate): 25500 nM
- GI50 (SNB-75 CNS): 35200 nM
- TGI (SNB-75 CNS): > 100000 nM
- GI50 (SK-MEL-2 melanoma): 17100 nM
- TGI (SK-MEL-2 melanoma): 57500 nM
- GI50 (LOX IMVI melanoma): 12200 nM
- TGI (LOX IMVI melanoma): 34900 nM
- GI50 (MALME-3M melanoma): 20500 nM
- TGI (MALME-3M melanoma): 49000 nM
- GI50 (SF-295 CNS): 11400 nM
- TGI (SF-295 CNS): 39500 nM
- GI50 (RXF 393 renal): 3670 nM
- TGI (RXF 393 renal): 20300 nM
- GI50 (HCT-15 colon): 12400 nM
- TGI (HCT-15 colon): > 100000 nM
- GI50 (OVCAR-3 ovarian): 11200 nM
- TGI (OVCAR-3 ovarian): 38900 nM
- GI50 (COLO 205 colon): 11600 nM
- TGI (COLO 205 colon): 29700 nM

Compound: Nc1ncc(-c2cnn(C3CCNCC3)c2)cc1-c1nc2ccccc2o1
- GI50 (PC-3 prostate): 1590 nM
- TGI (PC-3 prostate): 6680 nM
- GI50 (SNB-75 CNS): 1310 nM
- TGI (SNB-75 CNS): 2670 nM
- GI50 (SK-MEL-2 melanoma): 1100 nM
- TGI (SK-MEL-2 melanoma): 2720 nM
- GI50 (LOX IMVI melanoma): 1200 nM
- TGI (LOX IMVI melanoma): 2590 nM
- GI50 (MALME-3M melanoma): 1720 nM
- TGI (MALME-3M melanoma): 3370 nM
- GI50 (SF-295 CNS): 1540 nM
- TGI (SF-295 CNS): 3430 nM
- GI50 (RXF 393 renal): 485 nM
- TGI (RXF 393 renal): 2250 nM
- GI50 (HCT-15 colon): 508 nM
- TGI (HCT-15 colon): 2500 nM
- GI50 (OVCAR-3 ovarian): 1530 nM
- TGI (OVCAR-3 ovarian): 3520 nM
- GI50 (COLO 205 colon): 1550 nM
- TGI (COLO 205 colon): 3050 nM

Compound: CNC(=O)c1ccc(Nc2ncc(C(F)(F)F)c(NCc3nccnc3N(C)S(C)(=O)=O)n2)cc1
- GI50 (PC-3 prostate): 3540 nM and 3410 nM and 2850 nM
- TGI (PC-3 prostate): > 10000 nM and 14300 nM and 13200 nM
- GI50 (SNB-75 CNS): 1520 nM and 1410 nM
- TGI (SNB-75 CNS): 4900 nM
- GI50 (SK-MEL-2 melanoma): 783 nM and 1320 nM and 1600 nM
- TGI (SK-MEL-2 melanoma): 3710 nM and 4280 nM and 4630 nM
- GI50 (LOX IMVI melanoma): 2100 nM and 2060 nM and 2020 nM
- TGI (LOX IMVI melanoma): > 10000 nM and 8030 nM and 8910 nM
- GI50 (MALME-3M melanoma): 4100 nM and 2980 nM and 3710 nM
- TGI (MALME-3M melanoma): > 10000 nM and 13300 nM and 12700 nM
- GI50 (SF-295 CNS): 3040 nM and 2600 nM and 2610 nM
- TGI (SF-295 CNS): > 10000 nM and 10900 nM and 12900 nM
- GI50 (RXF 393 renal): 637 nM and 1390 nM and 575 nM
- TGI (RXF 393 renal): 2740 nM and 3760 nM and 2850 nM
- GI50 (HCT-15 colon): 2920 nM and 2650 nM and 2570 nM
- TGI (HCT-15 colon): > 10000 nM and 11300 nM and 12600 nM
- GI50 (OVCAR-3 ovarian): 3160 nM and 2260 nM and 2710 nM
- TGI (OVCAR-3 ovarian): > 10000 nM and 8430 nM and 12800 nM
- GI50 (COLO 205 colon): 1320 nM and 1370 nM and 1390 nM
- TGI (COLO 205 colon): 2910 nM and 2780 nM and 3170 nM

Compound: O=C1C(=O)c2cc([N+](=O)[O-])ccc2-c2ccccc21
- GI50 (PC-3 prostate): 1970 nM
- TGI (PC-3 prostate): 3720 nM
- GI50 (SNB-75 CNS): 1470 nM
- TGI (SNB-75 CNS): 2800 nM
- GI50 (SK-MEL-2 melanoma): 1550 nM
- TGI (SK-MEL-2 melanoma): 3050 nM
- GI50 (LOX IMVI melanoma): 1220 nM
- TGI (LOX IMVI melanoma): 2480 nM
- GI50 (MALME-3M melanoma): 1770 nM
- TGI (MALME-3M melanoma): 3400 nM
- GI50 (SF-295 CNS): 1860 nM
- TGI (SF-295 CNS): 3480 nM
- GI50 (RXF 393 renal): 1960 nM
- TGI (RXF 393 renal): 3430 nM
- GI50 (HCT-15 colon): 1800 nM
- TGI (HCT-15 colon): 3590 nM
- GI50 (OVCAR-3 ovarian): 1420 nM
- TGI (OVCAR-3 ovarian): 2760 nM
- GI50 (COLO 205 colon): 1940 nM
- TGI (COLO 205 colon): 3490 nM
